pIC50: −log10 of the molar value. Where two headings read alike, the source gives them in different places.
Key:
[1] = system: malignant pleural mesothelioma cell line NCI-H226; assay: Cell growth inhibitory activity, NCI-H226; format: cell-based; details: Table 8
Description: (§1) The cell growth inhibitory activity against a colorectal cancer cell line HCT116 was measured. As an index of cell growth inhibitory activity, a concentration at which cell growth was inhibited by 50% as compared with a control (IC50) was used. The method is as follows. HCT116 was added to a 6-well plate by 5×10^4, compounds having various concentrations were added after 24 hours, and the number of cells was counted after 72 hours of culture. As the control, DMSO was used in an amount equal to the amount added in accordance with the addition concentration of the highest-concentration compound. The number of cells at each concentration relative to the control was expressed as a percentage. In Table 3, the turbidities of the compounds are also indicated.
GO-Y198, GO-Y199, and GO-Y200 against malignant pleural mesothelioma cell lines NCI-H226 and MSTO211H was measured. The method is as described above. For comparison, the IC50 of cisplatin (CDDP), a cytocidal anticancer agent, is also indicated.

[2] = system: cutaneous T-cell lymphoma cell line HUT78; assay: Cell growth inhibitory activity, HUT78; format: cell-based; details: Table 10
Description: [The source words this procedure for another cell line and reports this cell line under the same test.] as §1, with “percentage.” for “percentage. In Table 3, the turbidities of the compounds are also indicated.”
(§2) The method is as described above.

[3] = system: MSTO-211H cells; assay: Antitumor effect on malignant mesothelioma cells, animal model; format: in vivo, nude mice
Description: An animal model was used to investigate the antitumor effect of GO-Y199 on malignant mesothelioma cells. The method is as follows. 2.8×10^6 MSTO-211H cells were intraperitoneally transplanted into each of 5 nude mice. From Day 5, 43 μL of 100 mM GO-Y199 in DMSO was diluted to 500 μL with PBS and intraperitoneally administered to the mice (equivalent to 5 mg of GO-Y199). As a control group, a DMSO-PBS solution having the equivalent concentration was intraperitoneally administered to each of four nude mice to which MSTO-211H cells were intraperitoneally transplanted in the same manner. The administration was performed 5 times in total at intervals of 5 days. After 30 days, the mice were sacrificed, necropsied, and analyzed.

[4] = Turbidity measurement; format: physicochemical
Description: The turbidity of various compounds was measured. The method is as follows. […] Curcumin was cloudy while GO-Y199 was clear. The solubility was measured with a turbidimeter (WZB-170 Portable Turbidimeter available from REX). The turbidity of the compound was corrected for concentration.
Subsequently, GO-Y206 and curcumin were adjusted to final concentrations of 1.25 μM and 5.00 μM, respectively, and their turbidities were measured.

[5] = system: gastric cancer cell line SH-10-TC; assay: Cell growth inhibitory activity, SH-10-TC; format: cell-based
Description: [The source words this procedure for another cell line and reports this cell line under the same test.] as §1, with “percentage.” for “percentage. In Table 3, the turbidities of the compounds are also indicated.”
as §2

[6] = system: HCT116; assay: In vivo antitumor effect, HCT116 subcutaneous implant; details: nude mouse, HCT116 s.c.; 1 mg single tail vein injection; maximum diameter 4 days after; control 113.7±12.4%
Description: The in vivo antitumor effect of GO-Y199 was investigated. The method is as follows. HCT116 was implanted subcutaneously into a nude mouse. After tumor formation, 100 mM GO-Y199 in DMSO was dissolved in 100 μL of PBS and injected once into the tail vein of the mouse (corresponding to 1 mg of GO-Y199). As a control group, a DMSO-PBS solution having the equivalent concentration was injected once into the tail vein. The maximum diameter of the tumor was measured 4 days after the administration.

[7] = Blood concentration after intravenous injection; format: in vivo, BALB/cSlc-nu/+ mice; details: mouse, 1 mg tail vein
Description: The blood concentration of GO-Y199 after intravenous injection was investigated. The method is as follows. To BALB/cSlc-nu/+ mice, the equivalent of 1 mg of GO-Y199 was injected into the tail vein as described above, blood was collected from the orbital vein over time, and the serum was subjected to HPLC to measure the blood concentration of GO-Y199. FIG. 27 indicates results of HPLC analysis of blood after intravenous injection. FIG. 28 indicates results of changes over time in the blood concentration of GO-Y199 after intravenous injection.

[8] = system: colorectal cancer cell line HCT116; assay: Cell growth inhibitory activity, HCT116; format: cell-based
Description: as §1, with “percentage.” for “percentage. In Table 3, the turbidities of the compounds are also indicated.”
as §2
(§3) The cell growth inhibitory activity (IC50) of each of curcumin, GO-Y199, and GO-Y206 against the colorectal cancer cell lines DLD-1 and HCT116 and the gastric cancer cell lines KATO III and H-111-TC was measured. The method is as described above.

[9] = system: gastric cancer cell line KATO III; assay: Cell growth inhibitory activity, KATO III; format: cell-based
Description: as §1, with “percentage.” for “percentage. In Table 3, the turbidities of the compounds are also indicated.”
as §2, §3

[10] = system: breast cancer cell line HCC1395; assay: Cell growth inhibitory activity, HCC1395; format: cell-based
Description: [The source words this procedure for another cell line and reports this cell line under the same test.] as §1, with “percentage.” for “percentage. In Table 3, the turbidities of the compounds are also indicated.”
as §2

[11] = system: breast cancer cell line HCC38; assay: Cell growth inhibitory activity, HCC38; format: cell-based
Description: [The source words this procedure for another cell line and reports this cell line under the same test.] as §1, with “percentage.” for “percentage. In Table 3, the turbidities of the compounds are also indicated.”
as §2

COCOc1cc(/C=C/C(=O)CC(SCCOCCOCCOCCOCc2cn([C@@H]3O[C@H](CO)[C@@H](O[C@@H]4O[C@H](CO)[C@H](O)[C@H](O)[C@H]4O)[C@H](O)[C@H]3O)nn2)c2cc(OCOC)cc(OCOC)c2)cc(OCOC)c1 (stereo partly drawn) [GO-Y199]
IC50 [1]: 4.7 µM | IC50 [2]: 0.84 µM | animals with microscopic peritoneal disseminated lesions ([3]; 5 mg i.p., 5 times at intervals of 5 days, after 30 days, control 75%): 80% | size (maximum diameter) of disseminated nodule ([3]; 5 mg i.p., 5 times, after 30 days, control 6 to 13 mm): 5 mm | animals with disseminated nodule of maximum diameter exceeding 5 mm ([3]; 5 mg i.p., 5 times, after 30 days, control 100%): 20% | pathologic analysis, inside of the disseminated nodule ([3]; control filled with tumor cells): necrotic | tumor formation at the puncture site ([3]; not observed in control group): one animal | Turbidity/μm ([4]; Table 1, average turbidity corrected for final concentration (1.7-170 μm, per compound)): 0.00041 NTU/μM | Relative Value (turbidity) ([4]; Table 1, turbidity/μm relative to curcumin = 1): 0.0014 | Turbidity (Relative Value) ([4]; Table 3, relative to curcumin = 1): 0.0014 | Ave Turbidity (NTU) ([4]; final conc. 170 μm in DDW): 0.07 ± 0.05 NTU | appearance of solution ([4]; final concentration 50 μM in distilled water or DMEM with 10% fetal bovine serum, from DMSO): clear | pIC50 ([5]; Table 4, 72 hours): 6.00 | GO-Y199 vs GO-Y030 (IC50 comparison), SH-10-TC ([5]; Table 5, ratio of IC50): 0.65 | GO-Y199 vs curcumin (IC50 comparison), SH-10-TC ([5]; Table 5, ratio of IC50): 0.124 | tumor augmentation, % of that before the administration [6]: 95.2±20.0% | time for which the blood concentration is maintained [7]: 3 h | time after which GO-Y199 disappeared from the blood ([7]; serum HPLC): 180 min | time until which the blood concentration rapidly decreased ([7]; serum HPLC): 60 min | pIC50 ([8]; Table 3, HCT116, cell count after 72 hours of culture vs DMSO control, read-out: IC50): 6.37 | GO-Y199 vs GO-Y030 (IC50 comparison), HCT-116 ([8]; Table 5, ratio of IC50): 0.65 | GO-Y199 vs curcumin (IC50 comparison), HCT-116 ([8]; Table 5, ratio of IC50): 0.029 | IC50 ([8]; Table 6, read-out: IC50 (μM) HCT116): 0.98 µM | pIC50 ([8]; read-out: IC50 HCT-116, Table 4, 72 hours): 6.34 | pIC50 ([9]; Table 4, 72 hours, read-out: IC50 KATO III): 6.10 | IC50 ([9]; Table 6, read-out: IC50 (μM) KATO III): 3.86 µM | pIC50 ([10]; Table 4, 72 hours): 6.14 | GO-Y199 vs GO-Y030 (IC50 comparison), HCC1395 ([10]; Table 5, ratio of IC50): 0.34 | pIC50 ([11]; Table 4, 72 hours): 5.98 | GO-Y199 vs GO-Y030 (IC50 comparison), HCC38 ([11]; Table 5, ratio of IC50): 0.58
